Assay results from patent US10100001B2, “Adenylyl cyclase inhibitors for neuropathic and inflammatory pain” (Purdue Research Foundation, priority 2015, dated 2018).
pIC50: −log10 of the molar value.

Target: T1, AC1 (Homo sapiens, UniProt Q08828)
T1 construct: expressed in transfected cells
Assay: Inhibition of A23187-mediated (Ca2+-stimulated) cAMP accumulation in HEK cells stably expressing AC1
Type: cell-based
Conditions: for inhibition at 4 µM / inhibition at 40 µM: HEK293, read-out: AC1 Inhibition Percentage; for inhibition at 4 µM: 4 μM compound; for inhibition at 40 µM: 40 μM compound; for pIC50: HEK cells stably expressing AC1, inhibitors 30 min, then 3 μM A23187 with IBMX, average and S.E.M. of at least three independent experiments, read-out: IC50 for inhibition of the A23187-mediated cAMP response of AC1
Experimental: HEK cells stably expressing AC1 were treated with inhibitors for 30 min, and subsequently incubated with 3 μM A23187 in the presence of 2 mM IBMX. Data represent the average and S.E.M. of at least three independent experiments.
A23187 is a Ca2+ ionophore, which promotes Ca2+ binding to calmodulin in the cells and, subsequent stimulation of AC1.
HEK (human embryonic kidney) cells stably expressing human AC1, were cultured in Dubelcco's Modified Eagle Medium (Life Technologies, Grand Island, N.Y.) supplemented with 5% bovine calf serum (Hyclone, Logan, Utah), 5% fetal clone I (Hyclone, Logan, Utah), Antibiotic-Antimycotic (Life Technologies, Grand Island, N.Y.), and G418 (Invivogen, San Diego, Calif.). The cells were grown to confluency in 15 cm disses, harvested using Cell Dissociation Buffer (Life Technologies, Grand Island, N.Y.), and resuspended in 4 ml of fetal bovine serum (Hyclone, Logan, Utah) containing 10% dimethyl sulfoxide (Sigma-Aldrich, St. Louis, Mo.). 1 ml of cell suspension was added to cryovials that were incubated overnight at −80° C. in a CoolCell device (BioCision, Larkspur, Calif.) for cryopreservation. On the following day, cryovials were stored in liquid N2 until the assay day.
Cryopreserved HEK-AC1 cells were thawed in a 37° C. water-bath, resuspended in 10 ml optiMEM (Life Technologies, Grand Island, N.Y.) and centrifuged at 500×g for 5 min. The cells were resuspended in 10 ml optiMEM and the centrifugation step was repeated. Cells were then resuspended in 1 ml optiMEM and counted using a Countess automated cell counter (Life Technologies, Grand Island, N.Y.). Cells were added to a white, flat bottom, low-volume, tissue culture-treated 384 well plate (PerkinElmer, Shelton, Conn.) at a final density of 2500 cells/well. The plate was centrifuged for 1 min at 100×g and incubated in a 37° C. humidified incubator for 1 h. […] Following this incubation A23187 (Sigma-Aldrich, St. Louis, Mo.) (3 μM final concentration) containing 3-isobutyl-1-methylxanthine (Sigma-Aldrich, St. Louis, Mo.) (0.5 mM final concentration) was added. The plate was centrifuged for 1 min at 100×g and incubated at room temperature for 1 h. Cyclic AMP accumulation was measured using Cisbio's dynamic 2 kit (Cisbio Bioassays, Bedford, Mass.) according to the manufacturer's instructions. Plates were analyzed for fluorescent emissions at 620 nm and 665 nm using 330 nm as the excitation wavelength in a Cytation 3 Cell Imaging Multi-Mode Reader (Biotek, Winooski, Vt.), and ratiometric analysis was carried out by dividing the 665 nm emissions by the 620 nm emissions to extrapolate the cAMP concentrations from a cAMP standard curve. The data represent the average of at least three independent experiments ran in duplicate.

T1 sequence (Q08828 whole entry): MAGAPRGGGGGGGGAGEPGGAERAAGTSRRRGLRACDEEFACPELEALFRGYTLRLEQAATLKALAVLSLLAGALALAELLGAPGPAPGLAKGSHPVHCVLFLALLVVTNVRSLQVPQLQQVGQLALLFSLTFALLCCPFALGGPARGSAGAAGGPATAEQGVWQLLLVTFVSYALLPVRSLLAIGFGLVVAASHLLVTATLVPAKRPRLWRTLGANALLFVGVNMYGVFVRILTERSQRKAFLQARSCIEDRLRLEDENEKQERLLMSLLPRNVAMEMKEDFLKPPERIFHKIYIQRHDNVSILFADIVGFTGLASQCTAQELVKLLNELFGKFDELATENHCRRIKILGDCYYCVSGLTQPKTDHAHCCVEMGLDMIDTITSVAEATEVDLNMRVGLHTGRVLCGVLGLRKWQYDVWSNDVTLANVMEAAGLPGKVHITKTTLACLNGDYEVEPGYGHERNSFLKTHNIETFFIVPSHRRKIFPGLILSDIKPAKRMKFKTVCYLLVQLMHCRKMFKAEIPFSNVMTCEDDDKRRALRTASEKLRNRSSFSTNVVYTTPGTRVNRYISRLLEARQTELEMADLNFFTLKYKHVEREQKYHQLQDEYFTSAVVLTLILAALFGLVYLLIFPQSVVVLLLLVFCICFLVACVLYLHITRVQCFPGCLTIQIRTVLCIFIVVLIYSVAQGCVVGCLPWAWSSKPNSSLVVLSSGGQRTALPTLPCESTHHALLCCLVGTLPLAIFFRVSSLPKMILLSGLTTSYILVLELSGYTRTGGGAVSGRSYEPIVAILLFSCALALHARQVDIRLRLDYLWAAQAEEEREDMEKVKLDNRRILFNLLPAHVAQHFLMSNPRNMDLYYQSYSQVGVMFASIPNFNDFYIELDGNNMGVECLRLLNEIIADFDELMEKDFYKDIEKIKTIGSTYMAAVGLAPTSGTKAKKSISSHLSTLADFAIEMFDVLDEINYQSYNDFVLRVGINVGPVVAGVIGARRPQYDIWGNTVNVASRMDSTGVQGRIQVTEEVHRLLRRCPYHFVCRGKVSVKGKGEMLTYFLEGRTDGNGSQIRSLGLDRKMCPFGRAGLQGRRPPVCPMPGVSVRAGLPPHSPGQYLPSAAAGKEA

Structure (SMILES) | inhibition at 4 µM | inhibition at 40 µM | pIC50
C(=C\c1ccccc1)/CN(Cc1ccccc1)Cc1ccccc1 [Compound 7e, (E)-N,N-dibenzyl-3-phenylprop-2-en-1-amine] | -9% | 75% | 
COc1ccc2c(c1)C(c1ccccc1)CN(C/C=C/c1ccc(F)cc1)CC2 (stereo not drawn) [Compound 7jd, (E)-3-(3-(4-fluorophenyl)allyl)-8-methoxy-1-phenyl-2,3,4,5-tetrahydro-1H-benzo[d]azepine] | 49% | 91% | 4.83
FC(F)(F)c1ccc(/C=C/CN(CCc2c[nH]c3ccccc23)Cc2ccccc2)cc1 [Compound 7ah, (E)-N-(2-(1H-indol-3-yl)ethyl)-N-benzyl-3-(4-(trifluoromethyl)phenyl)prop-2-en-1-amine] | 24% | 96% | 
COC(=O)CCCN(C/C=C/c1ccc(C)cc1)Cc1ccc(F)cc1 [Compound 7gb, (E)-methyl 4-((4-fluorobenzyl)(3-p-tolylallyl)amino)butanoate] | -3% | 64% | 
Fc1ccc(CN(C/C=C/c2ccccc2)CCc2c[nH]c3ccccc23)cc1 [Compound 7bb, (E)-N-(2-(1H-indol-3-yl)ethyl)-N-(4-fluorobenzyl)-3-phenylprop-2-en-1-amine] | 31% | 96% | 
COc1ccc(CN(C/C=C/c2ccccc2)CCc2c[nH]c3ccccc23)cc1 [Compound 7ba, (E)-N-(2-(1H-indol-3-yl)ethyl)-N-(4-methoxybenzyl)-3-phenylprop-2-en-1-amine] | 34% | 98% | 
Brc1ccc(/C=C/CN(CCc2c[nH]c3ccccc23)Cc2ccccc2)cc1 [Compound 7ag, (E)-N-(2-(1H-indol-3-yl)ethyl)-N-benzyl-3-(4-bromophenyl)prop-2-en-1-amine] | 57% | 96% | 5.16
Fc1ccc(/C=C/CN(CCc2c[nH]c3ccccc23)Cc2ccccc2)cc1 [Compound 7ae, (E)-N-(2-(1H-indol-3-yl)ethyl)-N-benzyl-3-(4-fluorophenyl)prop-2-en-1-amine] | 47% | 91% | 4.89
CN(C/C=C/c1ccc(C(F)(F)F)cc1)Cc1cccc2ccccc12 [Compound 7fh, (E)-N-methyl-N-(naphthalen-1-ylmethyl)-3-(4-(trifluoromethyl)phenyl)prop-2-en-1-amine] | 30% | 87% | 
Cc1cccc(/C=C/CN(CCc2c[nH]c3ccccc23)Cc2ccccc2)c1 [Compound 7ac, (E)-N-(2-(1H-indol-3-yl)ethyl)-N-benzyl-3-m-tolylprop-2-en-1-amine] | 18% | 93% | 
CN(C/C=C/c1cccc([N+](=O)[O-])c1)Cc1cccc2ccccc12 [Compound 7fl, (E)-N-methyl-N-(naphthalen-1-ylmethyl)-3-(3-nitrophenyl)prop-2-en-1-amine] | -28% | 62% | 
Cc1ccccc1/C=C/CN(C)Cc1cccc2ccccc12 [Compound 7fc, (E)-N-methyl-N-(naphthalen-1-ylmethyl)-3-o-tolylprop-2-en-1-amine] | -71% | 77% | 
Cc1ccc(/C=C/CN(CCc2c[nH]c3ccccc23)Cc2ccccc2)cc1 [Compound 7ab, (E)-N-(2-(1H-indol-3-yl)ethyl)-N-benzyl-3-p-tolylprop-2-en-1-amine] | 20% | 91% | 
Ic1ccc(/C=C/CN(CCc2c[nH]c3ccccc23)Cc2ccccc2)cc1 [Compound 7ad, (E)-N-(2-(1H-indol-3-yl)ethyl)-N-benzyl-3-(4-iodophenyl)prop-2-en-1-amine] | 59% | 93% | 4.99
CCOC(=O)c1ccc(/C=C/CN(C)Cc2cccc3ccccc23)cc1 [Compound 7fi, (E)-ethyl 4-(3-(methyl(naphthalen-1-ylmethyl)amino)prop-1-enyl)benzoate] | -40% | 85% | 
COC(=O)CCCN(C/C=C/c1ccccc1)Cc1ccc(F)cc1 [Compound 7ga, methyl 4-(cinnamyl(4-fluorobenzyl)amino)butanoate] | 20% | 67% | 

The next lines start with results.

inhibition at 4 µM | inhibition at 40 µM | Structure (SMILES) | pIC50
72% | 95% | COc1ccc2c(c1)C(c1ccccc1)CN(CC=Cc1ccccc1)CC2 (stereo not drawn) [Compound 7ja, 3-cinnamyl-8-methoxy-1-phenyl-2,3,4,5-tetrahydro-1H-benzo[d]azepine] | 
35% | 97% | Fc1ccc(C(c2ccc(F)cc2)N2CCN(C/C=C/c3ccccc3)CC2)cc1 [Compound 3, 1-(bis(4-fluorophenyl)methyl)-4-cinnamylpiperazine, reference compound] | 
-26% | 27% | Cc1ccc(/C=C/CN2CCCN(S(=O)(=O)c3ccc(C)cc3)CC2)cc1 [Compound 7hb, (E)-1-(3-p-tolylallyl)-4-tosyl-1,4-diazepane] | 
-26% | 95% | Cc1ccc(/C=C/CN(C)Cc2cccc3ccccc23)cc1 [Compound 7fa, (E)-N-methyl-N-(naphthalen-1-ylmethyl)-3-p-tolylprop-2-en-1-amine] | 
33% | 78% | COc1ccc2c(c1)C(c1ccccc1)CN(C/C=C/c1ccc(Cl)cc1)CC2 (stereo not drawn) [Compound 7je, (E)-3-(3-(4-chlorophenyl)allyl)-8-methoxy-1-phenyl-2,3,4,5-tetrahydro-1H-benzo[d]azepine] | 5.04
-61% | 93% | CN(C/C=C/c1ccc(Br)cc1)Cc1cccc2ccccc12 [Compound 7fg, (E)-3-(4-bromophenyl)-N-methyl-N-(naphthalen-1-ylmethyl)prop-2-en-1-amine] | 
4% | 85% | CN(C/C=C/c1ccc(F)cc1)Cc1cccc2ccccc12 [Compound 7fe, (E)-3-(4-fluorophenyl)-N-methyl-N-(naphthalen-1-ylmethyl)prop-2-en-1-amine] | 
32% | 32% | COc1ccc2c(c1)C(c1ccc(Br)cc1)CN(C/C=C/c1ccc(Cl)cc1)CC2 (stereo not drawn) [Compound 7kc, (E)-1-(4-bromophenyl)-3-(3-(4-chlorophenyl)allyl)-8-methoxy-2,3,4,5-tetrahydro-1H-benzo[d]azepine] | 
17% | 88% | COc1ccc2c(c1)C(c1ccccc1)CN(C/C=C/c1ccc(C(F)(F)F)cc1)CC2 (stereo not drawn) [Compound 7jf, (E)-8-methoxy-1-phenyl-3-(3-(4-(trifluoromethyl)phenyl)allyl)-2,3,4,5-tetrahydro-1H-benzo[d]azepine] | 
-14% | 82% | COc1ccc(/C=C/CN(C)Cc2cccc3ccccc23)cc1 [Compound 7fj, (E)-3-(4-methoxyphenyl)-N-methyl-N-(naphthalen-1-ylmethyl)prop-2-en-1-amine] | 
6% | 73% | Cc1ccc(S(=O)(=O)N2CCCN(C/C=C/c3ccccc3)CC2)cc1 [Compound 7ha, 1-cinnamyl-4-tosyl-1,4-diazepane] | 
-3% | 51% | COc1ccc2c(c1)C(c1ccccc1)CN(C/C=C/c1ccc(I)cc1)CC2 (stereo not drawn) [Compound 7jc, (E)-3-(3-(4-iodophenyl)allyl)-8-methoxy-1-phenyl-2,3,4,5-tetrahydro-1H-benzo[d]azepine] | 
43% | 90% | COc1ccc2c(c1)C(c1ccccc1)CN(C/C=C/c1ccc(C)cc1)CC2 (stereo not drawn) [Compound 7jb, (E)-8-methoxy-1-phenyl-3-(3-p-tolylallyl)-2,3,4,5-tetrahydro-1H-benzo[d]azepine] | 4.78
11% | 94% | CN(C/C=C/c1ccc(I)cc1)Cc1cccc2ccccc12 [Compound 7fd, (E)-3-(4-iodophenyl)-N-methyl-N-(naphthalen-1-ylmethyl)prop-2-en-1-amine] | 
